From patent publication US20180186742A1, “PICOLINAMIDES AS FUNGICIDES” (Dow AgroSciences LLC, priority 2017, published 2018)
Read-outs that look alike come from different tables or passages of the source.

How the values were obtained:
Format in all cases: in vivo
[1] = test system: Puccinia triticina; assay: Wheat brown rust (PUCCRT), disease control on wheat seedlings; conditions: low volume application at 121.5 g/H
In short: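 Compounds in acetone, diluted with nine volumes of water containing 110 ppm Triton X-100, sprayed to run-off on first-leaf Yuma wheat seedlings; track-spray tests used EC formulations with 0.1% Trycol 5941. Puccinia triticina spores applied before or after treatment. Overnight dark dew room at 22° C, 100% humidity, then greenhouse at 24° C.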

[2] = test system: Phakopsora pachyrhizi; assay: Asian soybean rust (PHAKPA), disease control on soybean seedlings; conditions: High volume application at 25 ppm
In short: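 Two-week-old Williams 82 soybean seedlings were sprayed to run-off with compound in acetone/water (1:9) containing 0.011% Tween 20. Inoculation was 3 days before (curative) or 1 day after (protectant) treatment, followed by 24 h dark dew at 22 °C, 100% RH, then 23 °C; disease severity scored on sprayed leaves.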

[3] = test system: Zymoseptoria tritici; assay: Leaf blotch of wheat (SEPTTR), disease control on wheat seedlings; conditions: low volume application at 121.5 g/H
In short: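 Z. tritici spores were inoculated onto wheat seedlings (Yuma, first leaf emerged) either before or after treatment. Treatment was an automated spray to run-off of acetone/Triton X-100 water solutions, or a track spray of EC formulations with 0.1% Trycol 5941. Plants were held in dew chambers at 20 °C and then a greenhouse at 20 °C. First-leaf severity (0–100%) was converted to percent control against untreated plants.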

[4] = 24 h, 1 Day Protectant, read-out: PUCCRT disease control, 1DP, LV activity
[5] = 72 h, 3 Day Curative, read-out: PUCCRT disease control, 3DC, LV activity
[6] = 24 h, 1 Day Protectant, read-out: PHAKPA 1DP disease control rating
[7] = 72 h, 3 Day Curative, read-out: PHAKPA 3DC disease control rating
[8] = 24 h, 1 Day Protectant, read-out: SEPTTR disease control, 1DP, LV activity
[9] = 72 h, 3 Day Curative, read-out: SEPTTR disease control, 3DC, LV activity
[10] = 24 h, 1 Day Protectant, wheat brown rust, read-out: PUCCRT 1DP disease control, LV activity
[11] = 72 h, 3 Day Curative, wheat brown rust, read-out: PUCCRT 3DC disease control, LV activity
[12] = 24 h, 1 Day Protectant, wheat leaf blotch, read-out: SEPTTR 1DP disease control, LV activity
[13] = 72 h, 3 Day Curative, wheat leaf blotch, read-out: SEPTTR 3DC disease control, LV activity

SMILES | pest or weed control at 121.5 g/ha [1, 4] [%] | pest or weed control at 121.5 g/ha [1, 5] [%] | pest or weed control at 25 ppm [2, 6] [%] | pest or weed control at 25 ppm [2, 7] [%] | pest or weed control at 121.5 g/ha [3, 8] [%] | pest or weed control at 121.5 g/ha [3, 9] [%] | pest or weed control at 121.5 g/ha [1, 10] [%] | pest or weed control at 121.5 g/ha [1, 11] [%] | pest or weed control at 121.5 g/ha [3, 12] [%] | pest or weed control at 121.5 g/ha [3, 13] [%]
COCCC(=O)Oc1c(OC)ccnc1C(=O)NCC(=O)O[C@@H](C)[C@H](c1ccc(F)cc1C)C(C)C [Compound 350] | > 80 | > 80 | > 80 | > 80 | < 80 | < 80 | – | – | – | –
COCCC(=O)Oc1c(OC)ccnc1C(=O)N[C@H](C(=O)O[C@@H](C)[C@H](c1ccc(F)cc1C)C(C)C)C(C)C [Compound 351] | > 80 | < 80 | > 80 | < 80 | > 80 | < 80 | – | – | – | –
CC[C@H](C)[C@H](NC(=O)c1nccc(OC)c1OC(=O)CCOC)C(=O)O[C@@H](C)[C@H](c1ccc(F)cc1C)C(C)C [Compound 352] | > 80 | < 80 | > 80 | < 80 | < 80 | < 80 | – | – | – | –
COCCC(=O)Oc1c(OC)ccnc1C(=O)N[C@@H](CC(C)C)C(=O)O[C@@H](C)[C@H](c1ccc(F)cc1C)C(C)C [Compound 353] | < 80 | < 80 | > 80 | < 80 | < 80 | < 80 | – | – | – | –
COc1ccnc(C(=O)N[C@@H](C)C(=O)O[C@@H](C)[C@H](c2cc(C)ccc2C)C(C)C)c1OC(C)=O [Compound 358] | > 80 | < 80 | > 80 | < 80 | < 80 | < 80 | – | – | – | –
COc1ccnc(C(=O)N[C@@H](C)C(=O)O[C@@H](C)[C@H](c2ccccc2F)C(C)C)c1OC(C)=O [Compound 360] | > 80 | > 80 | > 80 | > 80 | < 80 | > 80 | – | – | – | –
COc1ccnc(C(=O)N[C@@H](C)C(=O)O[C@@H](C)[C@H](c2cc(F)ccc2C)C(C)C)c1OC(C)=O [Compound 361] | > 80 | < 80 | > 80 | > 80 | < 80 | < 80 | – | – | – | –
COc1ccnc(C(=O)N[C@@H](C)C(=O)O[C@@H](C)[C@H](c2ccc(C)cc2C)C(C)C)c1OC(C)=O [Compound 362] | > 80 | > 80 | > 80 | > 80 | > 80 | > 80 | – | – | – | –
COc1ccnc(C(=O)N[C@@H](C)C(=O)O[C@@H](C)[C@H](c2ccc(F)cc2F)C(C)C)c1OC(C)=O [Compound 365] | – | – | > 80 | > 80 | – | – | > 80 | > 80 | > 80 | > 80
COc1ccnc(C(=O)N[C@@H](C)C(=O)O[C@@H](C)[C@H](c2ccc(C)cc2F)C(C)C)c1OC(C)=O [Compound 366] | – | – | > 80 | < 80 | – | – | > 80 | > 80 | < 80 | < 80
COc1ccnc(C(=O)N[C@@H](C)C(=O)O[C@@H](C)[C@H](c2ccc(Cl)cc2Cl)C(C)C)c1OC(C)=O [Compound 367] | – | – | > 80 | > 80 | – | – | > 80 | > 80 | > 80 | < 80
